Reference: patent US7928119B2, “Use of EP4 receptor ligands in the treatment of IL-6 involved diseases” (Pfizer Inc., priority 2002, dated 2011)

system: human PBMC; assay: PGE2 stimulation of IL-6 secretion in ConA-treated human PBMC and its inhibition by EP4 antagonists (ELISA); type: cell-based; details: ConA-treated PBMC, 50 μM compound, PGE2 10-1000 nM, 24 hr
Procedure: PBMC were stimulated with 5 μg/ml of Con A alone or with 10 nM to 1000 nM PGE2 at 37° C. for 24 hr. The secreted IL-6 in culture medium was measured by ELISA. Data are expressed as mean±s.d. (FIG. 1)
The PGE2 concentration-dependence of stimulation of IL-6 secretion by human PBMC without and with ConA-stimulation, and the inhibitory effect of Compound A. PBMC were stimulated with 5 μg/ml of Concanavalin A alone or with 10 nM to 1000 nM PGE2 at 37° C. in 5% CO2 for 24 hr. To see the effect of Compound A, 50 μM of Compound A was added simultaneously with ConA and PGE2, and incubated for 24 hr. Data in parenthesis are expressed % control of mitocondorial dehydrogenase activity. (FIG. 2)
Compound A and Compound B inhibited the IL-6 secretion in ConA-treated PBMC. (FIG. 3.) PBMC were incubated with 5 μg/ml of Con A, 100 nM PGE2 and various doses of EP4 antagonists at 37° C. for 24 hr. The secreted IL-6 in culture medium was measured by ELISA. Data are expressed as mean±s.d.

Molecule	IL-6 production enhanced by PGE2
CCc1nc2c(C)cc(C)nc2n1-c1ccc(CCNC(=O)NS(=O)(=O)c2ccc(C)cc2)cc1 [Compound A, N-[({2-[4-(2-ethyl-5,7-dimethyl-3H-imidazo[4,5-b]pyridin-3-yl)phenyl]ethyl}amino)carbonyl]-4-methylbenzenesulfonamide]	significantly inhibited

same assay, conditions: Homo sapiens; PBMC stimulated with 5 μg/ml ConA and 100 nM PGE2 for 24 hr; read-out: IC50 of inhibition of IL-6 production

Molecule	IC50
CCc1nc2c(C)cc(C)nc2n1-c1ccc(CCNC(=O)NS(=O)(=O)c2ccc(C)cc2)cc1 [Compound A, N-[({2-[4-(2-ethyl-5,7-dimethyl-3H-imidazo[4,5-b]pyridin-3-yl)phenyl]ethyl}amino)carbonyl]-4-methylbenzenesulfonamide]	13 nM

same assay, conditions: PBMC, 5 μg/ml ConA, 24 hr, without PGE2

Molecule	secretion of IL-6
Concanavalin A [ConA]	enhanced

system: not given; assay: not given; details: not given

melting point	Molecule
101 to 123 °C	CCc1nc2cc(NS(C)(=O)=O)c(Cl)cc2n1-c1ccc(CCNC(=O)NS(=O)(=O)c2ccc(C)cc2)cc1
152 to 163 °C	CCc1nc2cc(C(N)=O)c(Cl)cc2n1-c1ccc(CCNC(=O)NS(=O)(=O)c2ccc(C)cc2)cc1
125 to 133 °C	CCc1nc2cc(NC(C)=O)c(Cl)cc2n1-c1ccc(CCNC(=O)NS(=O)(=O)c2ccc(C)cc2)cc1
163 °C	CCc1nc2c(Cl)nc(C)cc2n1-c1ccc(CCNC(=O)NS(=O)(=O)c2ccc(C)cc2)cc1
128 to 130 °C	CCc1nc2c(C)cc(C)nc2n1-c1ccc(CCNC(=O)NS(=O)(=O)c2cc3ccccc3s2)cc1
127 to 130 °C	CCc1nc2cc(C(F)(F)F)c(Cl)cc2n1-c1ccc(CCOC(=O)NS(=O)(=O)c2ccccn2)cc1
200.2 °C	CCc1nc2cc(C(F)(F)F)c(Cl)cc2n1-c1ccc(CCN(C(=O)O)S(=O)(=O)c2ccc(C)cn2)cc1.Cl.Cl
203.4 °C	CCc1nc2cc(C(F)(F)F)c(Cl)cc2n1-c1ccc(CCOC(=O)NS(=O)(=O)c2cccc3c(N(C)C)cccc23)cc1
108 to 114 °C	CCc1nc2cc(N(C)C)c(Cl)cc2n1-c1ccc(CCNC(=O)NS(=O)(=O)c2ccc(C)cc2)cc1
95 to 100 °C	CCc1nc2cc(NC)c(Cl)cc2n1-c1ccc(CCNC(=O)NS(=O)(=O)c2ccc(C)cc2)cc1
208 to 214 °C	CCc1nc2c(C(N)=O)cccc2n1-c1ccc(CCNC(=O)NS(=O)(=O)c2ccc(C)cc2)cc1
105 to 118 °C	CCc1nc2cc(S(C)(=O)=O)c(Cl)cc2n1-c1ccc(CCNC(=O)NS(=O)(=O)c2ccc(C)cc2)cc1
163 to 170 °C	CCc1nc2cc(S(N)(=O)=O)c(Cl)cc2n1-c1ccc(CCNC(=O)NS(=O)(=O)c2ccc(C)cc2)cc1
140 to 145 °C	CCc1nc2c(C)c(C#N)c(C)cc2n1-c1ccc(CCNC(=O)NS(=O)(=O)c2ccc(C)cc2)cc1
188 to 189 °C	CCc1nc2cc(Cl)c(Cl)nc2n1-c1ccc(CCNC(=O)NS(=O)(=O)c2ccc(C)cc2)cc1
166 °C	CCc1nc2c(C)c(NS(C)(=O)=O)cnc2n1-c1ccc(CCNC(=O)NS(=O)(=O)c2ccc(C)cc2)cc1

melting point	Molecule
128 °C	CCc1nc2c(C)cc(C)nc2n1-c1ccc(CC(C)NC(=O)NS(=O)(=O)c2ccc(C)cc2)cc1 (stereo not shown)
205 to 206 °C	CCc1nc2cc(C)c(Cl)nc2n1-c1ccc(CCNC(=O)NS(=O)(=O)c2ccc(C)cc2)cc1 [Example 38, 5-CHLORO-2-ETHYL-6-METHYL-3-(4-{2-[({[(4-METHYLPHENYL)SULFONYL]AMINO}CARBONYL)AMINO]ETHYL}PHENYL)-3H-IMIDAZO[4,5-b]PYRIDINE]
133 °C	CCc1nc2c(C)c(C#N)c(C)nc2n1-c1ccc(CCNC(=O)NS(=O)(=O)c2ccc(C)cc2)cc1 [Example 41, 6-CYANO-2-ETHYL-5,7-DIMETHYL-3-(4-{2-[({[(4-METHYLPHENYL)SULFONYL]AMINO}CARBONYL)AMINO]ETHYL}PHENYL)-3H-IMIDAZO[4,5-b]PYRIDINE]
145 to 150 °C	CCc1nc2cc(C(=O)O)c(Cl)cc2n1-c1ccc(CCNC(=O)NS(=O)(=O)c2ccc(C)cc2)cc1 [Example 112, 6-CHLORO-2-ETHYL-1-(4-{2-[({[(4-METHYLPHENYL)SULFONYL]AMINO}CARBONYL)AMINO]ETHYL}PHENYL)-1H-BENZIMIDAZOLE-5-CARBOXYLIC ACID]
141 to 143 °C	CCc1nc2cc(C(F)(F)F)c(Cl)cc2n1-c1ccc(C[C@H](C)NC(=O)NS(=O)(=O)c2ccc(C)cc2)cc1 [Example 254, N-{[((1S)-2-{4-[6-CHLORO-2-ETHYL-5-(TRIFLUOROMETHYL)-1H-BENZIMIDAZOL-1-YL]PHENYL}-1-METHYLETHYL)AMINO]CARBONYL}-4-METHYLBENZENESULFONAMIDE]
138 to 141 °C	CCc1nc2cc(C(F)(F)F)c(Cl)cc2n1-c1ccc(C[C@@H](C)NC(=O)NS(=O)(=O)c2ccc(C)cc2)cc1 [Example 255, N-{[((1R)-2-{4-[6-CHLORO-2-ETHYL-5-(TRIFLUOROMETHYL)-1H-BENZIMIDAZOL-1-YL]PHENYL}-1-METHYLETHYL)AMINO]CARBONYL}-4-METHYLBENZENESULFONAMIDE]
227.9 to 228.7 °C	CCc1nc2c(C)cc(C)nc2n1-c1ccc(CCNC(=O)NS(=O)(=O)c2ccncc2)cc1 [Example 274, 2-ETHYL-3-(4-{2-[({[4-PYRIDINYLSULFONYL]AMINO}CARBONYL)AMINO]ETHYL}PHENYL)-5,7-DIMETHYL-3H-IMIDAZO[4,5-b]PYRIDINE]
204.3 °C	CCc1nc2cc(C(F)(F)F)c(Cl)cc2n1-c1ccc(CCOC(=O)NS(=O)(=O)c2cn(C)cn2)cc1 [Example 292, 2-{4-[6-CHLORO-2-ETHYL-5-(TRIFLUOROMETHYL)-1H-BENZIMIDAZOL-1-YL]PHENYL}ETHYL-(1-METHYL-1H-IMIDAZOL-4-YL)SULFONYLCARBAMATE]
221.2 °C	CCc1nc2cc(C(F)(F)F)c(Cl)cc2n1-c1ccc(CCOC(=O)NS(=O)(=O)c2cn(C)c(C)n2)cc1 [Example 294, 2-{4-[6-CHLORO-2-ETHYL-5-(TRIFLUOROMETHYL)-1H-BENZIMIDAZOL-1-YL]PHENYL}ETHYL-(1,2-DIMETHYL-1H-IMIDAZOL-4-YL)SULFONYLCARBAMATE]
95 to 103 °C	CCc1nc2c(C#N)cccc2n1-c1ccc(CCNC(=O)NS(=O)(=O)c2ccc(C)cc2)cc1 [Example 321, 4-CYANO-2-ETHYL-1-(4-{2-[({[(4-METHYLPHENYL)SULFONYL]AMINO}CARBONYL)AMINO]ETHYL}PHENYL)-1H-BENZIMIDAZOLE]
122 to 135 °C	CCc1nc2cc(C(=O)NC)c(Cl)cc2n1-c1ccc(CCNC(=O)NS(=O)(=O)c2ccc(C)cc2)cc1 [Example 333, 6-CHLORO-2-ETHYL-N-METHYL-1-(4-{2-[({[(4-METHYLPHENYL)SULFONYL]AMINO}CARBONYL)AMINO]ETHYL}PHENYL)-1H-BENZIMIDAZOLE-5-CARBOXAMIDE]
134.6 °C	CCc1nc2cc(COC)c(Cl)cc2n1-c1ccc(CCNC(=O)NS(=O)(=O)c2ccc(C)cc2)cc1 [Example 338, N-({[2-(4-{6-CHLORO-2-ETHYL-5-[(METHYLOXY)METHYL]-1H-BENZIMIDAZOL-1-YL}PHENYL)ETHYL]AMINO}CARBONYL)-4-METHYLBENZENSULFONAMIDE]
190 °C	CCc1nc2cc(C(C)O)ccc2n1-c1ccc(CCNC(=O)NS(=O)(=O)c2ccc(C)cc2)cc1 (stereo not shown) [Example 345, N-{[(2-{4-[2-ETHYL-5-(1-HYDROXYETHYL)-1H -BENZIMIDAZOL-1-YL]PHENYL}ETHYL)AMINO]CARBONYL}-4-METHYLBENZENESULFONAMIDE]
220 °C	Cc1ccc(S(=O)(=O)NC(=O)NCCc2ccc(-n3c(C(C)O)nc4cc(C(F)(F)F)c(Cl)cc43)cc2)cc1 (stereo not shown) [Example 367, N-{[(2-{4-[6-CHLORO-2-(1-HYDROXYETHYL)-5-(TRIFLUOROMETHYL)-1H-BENZIMIDAZOL-1-YL]PHENYL}ETHYL)AMINO]CARBONYL}-4-METHYLBENZENESULFONAMIDE]
225 °C	CC(=O)c1nc2cc(C(F)(F)F)c(Cl)cc2n1-c1ccc(CCNC(=O)NS(=O)(=O)c2ccc(C)cc2)cc1 [Example 368, N-{[(2-{4-[2-ACETYL-6-CHLORO-5-(TRIFLUOROMETHYL)-1H-BENZIMIDAZOL-1-YL]PHENYL}ETHYL)AMINO]CARBONYL}-4-METHYLBENZENESULFONAMIDE]
